Assay results from patent publication US8263605B2, “Modulators of muscarinic receptors” (Vertex Pharmaceutical Incorporated, priority 2006, dated 2012).

Assays:
M1 muscarinic receptor = target: T1, M1 muscarinic receptor (Homo sapiens, UniProt P11229); assay: Functional mobilization of intracellular calcium (FLIPR), M1-CHO cells; type: cell-based; conditions: for Emax: 100% efficacy is the maximum response obtained with the Carbachol control; for M1 Activity: CHO cells expressing M1, calcium mobilization
T1 construct: expressed in transfected cells; host or cells: CHO (M1-CHO)
T1 sequence (P11229 1-460): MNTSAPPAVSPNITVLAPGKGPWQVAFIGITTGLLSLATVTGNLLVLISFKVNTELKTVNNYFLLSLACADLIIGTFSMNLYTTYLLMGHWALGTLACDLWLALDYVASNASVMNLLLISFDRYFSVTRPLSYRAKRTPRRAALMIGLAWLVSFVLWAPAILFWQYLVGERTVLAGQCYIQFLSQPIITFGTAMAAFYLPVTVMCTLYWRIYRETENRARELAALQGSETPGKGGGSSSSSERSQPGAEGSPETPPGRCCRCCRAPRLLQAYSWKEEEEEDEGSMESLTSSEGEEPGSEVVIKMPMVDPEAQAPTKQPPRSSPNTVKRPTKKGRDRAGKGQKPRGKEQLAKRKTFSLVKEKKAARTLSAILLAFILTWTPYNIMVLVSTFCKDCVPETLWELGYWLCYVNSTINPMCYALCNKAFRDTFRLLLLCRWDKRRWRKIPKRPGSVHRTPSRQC
Protocol: (§1) Functional Mobilization of Intracellular Calcium to Determine Muscarinic Receptor Activity:
(§2) CHO cells expressing muscarinic receptors (M1 to M5) are grown as monolayers in tissue culture flasks at 37° C. in a humidified atmosphere containing 5% CO2 and passaged every 3-5 days. The growth media is Dulbecco's modified eagles medium (DMEM, Gibco Cat#12430-054), containing 25 mM Hepes and supplemented with Fetal Bovine Serum (Hyclone, cat# SH30071.03), 0.1 mM of MEM non-essential amino acids (GIBCO, Cat#11140-050), 1 mM MEM Sodium Pyruvate (GIBCO Cat#11360-070) and 100 units/ml of Penicillin G and 100 μg/ml of Streptomycin (GIBCO Cat#15140-122). The recombinant muscarinic receptor cell lines are grown under antibiotic pressure with media containing 25 μg/ml zeocin and 500 μg/ml G418 (M1-CHO), 4 μg/ml puromycin, 50 μg/ml zeocin and 2.5 μg/ml blasticidin (M2 and M4-CHO) or 50 μg/ml zeocin and 4 μg/ml puromycin (M3 and M5-CHO).
(§3) Cells are harvested at 80-90% confluence using Versene (GIBCO Cat#15040-066), collected by centrifugation and seeded 18-24 hours prior to running the calcium assay at a density of 5,000-10,000 cells/well in […], clear-bottomed 384-well plates (BD Biocoat, poly-D-lysine, Cat#356663). The day of the experiment, the cells are washed with a plate washer (Bioteck Instrunents, ELX 405) using bath 1 buffer (140-mM NaCl, 4.5-mM KCl, 2-mM CaCl2, 1-mM MgCl2, 10-mM Hepes-Na, 10-mM Glucose, pH 7.4, with NaOH) containing 1 mM Probenecid. Next, the calcium dye Fluo-3 (25 μl/well of Fluo-3 AM at 4 μM, Molecular Probes F-1241, in Bath 1 buffer containing 1 mM Probenecid) is added to the 25 μl of Bath 1 remaining in each well after the plate wash and the dye is loaded at 37° C. in the tissue culture incubator for 60-90 min. The fluorescent dye is removed using the plate washer with Bath 1 containing 1 mM Probenecid, leaving 25 μl/well of this solution after the wash. Alternatively, cells can be loaded with the calcium indicator from Molecular Devices (Calcium 3 Assay Reagents, Cat # R7181) adding 5 μl of a 5× solution dye in Bath 1 containing 1 mM Probenecid (10 ml per dye flask cat# R7182 to generate a solution 20×) to 20 μl of the same buffer. After loading for 60 min, the experiment can be run without having to remove the dye.
(§4) Compounds are prepared at a 2× fold concentration in a 96-well plate (round bottom, Costar Corning cat#3656), by reconstituting the pre-spotted compounds in bath 1 containing 1 mM probenecid. The final concentration DMSO is 0.5%, and the amount of DMSO is normalized across the assay plate. To determine an agonist action of the compounds on muscarinic receptors, the reconstituted compounds are added (25 μl compound/well) to the cell assay plate (containing 25 μl/well) using the multi-channel robotic system of the FLIPR 3 Instrument (Molecular Devices, Sunnyvale, Calif.). To determine a functional inhibitory action of the compounds on muscarinic receptors, the reconstituted compounds are added (25 μl compound/well) to the assay plate and pre-incubated for 15 min prior to adding 25 μl of Carbachol at 3× the EC80 for each muscarinic subtype. Alternatively, the compounds can be co-applied simultaneously with the agonist. In both assay modes, the fluorescence is recorded for 60 sec (excitation wavelength is […] and emission wavelength 540 nm) using the FLIPR 3 instrument.
(§5) The potency, efficacy and selectivity of the muscarinic compounds were evaluated by screening the compound activity across the whole family (M1 to M5 cells). Compounds were also screened for activity on other proteins such as other GPCRs and ion channels to determine selectivity on M4 receptors.
(§6) Examples of activities and efficacies of the muscarinic compounds of formulae (I, Ia, Ib, Ic, Id, and Ie) on modulating M1 and M4 receptors are shown below in Table 4. […]

M4 muscarinic receptor = target: T2, M4 muscarinic receptor (Homo sapiens, UniProt P08173); assay: Functional mobilization of intracellular calcium (FLIPR), M4-CHO cells; type: cell-based; conditions: for Emax: 100% efficacy is the maximum response obtained with the Carbachol control; for M4 Activity: CHO cells expressing M4, calcium mobilization
T2 construct: expressed in transfected cells; host or cells: CHO (M4-CHO)
T2 sequence (P08173 1-479): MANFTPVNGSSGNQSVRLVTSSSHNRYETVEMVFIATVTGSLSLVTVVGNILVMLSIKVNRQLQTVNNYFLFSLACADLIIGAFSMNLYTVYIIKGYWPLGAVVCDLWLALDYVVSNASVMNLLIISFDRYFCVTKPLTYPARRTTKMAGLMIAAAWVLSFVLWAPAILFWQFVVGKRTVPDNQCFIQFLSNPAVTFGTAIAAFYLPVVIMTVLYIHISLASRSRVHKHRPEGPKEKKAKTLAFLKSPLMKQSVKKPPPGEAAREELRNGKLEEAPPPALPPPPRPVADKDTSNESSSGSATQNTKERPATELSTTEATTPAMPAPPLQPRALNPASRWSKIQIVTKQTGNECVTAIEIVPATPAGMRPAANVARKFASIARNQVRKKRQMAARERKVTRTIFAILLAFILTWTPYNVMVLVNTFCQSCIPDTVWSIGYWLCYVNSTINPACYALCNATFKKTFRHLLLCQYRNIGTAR
Protocol: as §1, §2, §3, §4, §5, §6

Row | SMILES | Emax (M1 muscarinic receptor) | M1 Activity (M1 muscarinic receptor) | Emax (M4 muscarinic receptor) | M4 Activity (M4 muscarinic receptor)
1 | CCc1nsc(N2CCC(N3CCC4(CCN(C(C)=O)c5ccccc54)CC3)CC2)n1 [compound 16] | 25 to 100% | +++ (activity was measured to be less than 2.0 μM) | 25 to 100% | +++ (activity was measured to be less than 2.0 μM)
2 | CCCOC(=O)N1CC[C@@H](CN2CCC3(CC2)CN(C(=O)N(C)C)c2ccccc23)C1 [compound 55] | < 25% | ++ (activity was measured to be from 2.0 μM to 10.0 μM) | 25 to 100% | +++ (activity was measured to be less than 2.0 μM)
3 | CCOC(=O)N1C2CCC1CC(N1CCC3(CCN(C(=O)N(C)C)c4ccccc43)CC1)C2 (stereo not shown) [compound 27] | 25 to 100% | +++ (activity was measured to be less than 2.0 μM) | 25 to 100% | +++ (activity was measured to be less than 2.0 μM)
4 | Cc1nsc(N2CC[C@H](CN3CCC4(CC3)CN(C(=O)N(C)C)c3ccccc34)C2)n1 [compound 83] | 25 to 100% | ++ (activity was measured to be from 2.0 μM to 10.0 μM) | 25 to 100% | +++ (activity was measured to be less than 2.0 μM)
5 | CCc1nsc(N2CC[C@H](CN3CCC4(CC3)CN(C(=O)N(C)C)c3ccccc34)C2)n1 [compound 84] | 25 to 100% | +++ (activity was measured to be less than 2.0 μM) | 25 to 100% | +++ (activity was measured to be less than 2.0 μM)
6 | COC(=O)N1CCCC(N2CCC3(CC2)CN(C(=O)N(C)C)c2ccccc23)CC1 (stereo not shown) [compound 67] | 25 to 100% | +++ (activity was measured to be less than 2.0 μM) | 25 to 100% | +++ (activity was measured to be less than 2.0 μM)
7 | C#CCOC(=O)N1CCC(N2CCC3(CCN(C(=O)N(C)C)c4ccccc43)CC2)CC1 [compound 4] | 25 to 100% | +++ (activity was measured to be less than 2.0 μM) | 25 to 100% | +++ (activity was measured to be less than 2.0 μM)
8 | CN(C)C(=O)N1CC2(CCN(C3CC4CCC(C3)N4C(=O)OCC(F)F)CC2)c2ccccc21 (stereo not shown) [compound 49] | 25 to 100% | +++ (activity was measured to be less than 2.0 μM) | 25 to 100% | +++ (activity was measured to be less than 2.0 μM)
9 | CCOC(=O)N1CCC(N2CCC3(CC2)CN(C(=O)N(C)C)c2ccccc23)CC1 [Compound No. 39, ethyl 4-(1-(dimethylcarbamoyl)spiro[indoline-3,4′-piperidine]-1′-yl)piperidine-1-carboxylate] | 25 to 100% | +++ (activity was measured to be less than 2.0 μM) | 25 to 100% | +++ (activity was measured to be less than 2.0 μM)
10 | CN(C)C(=O)N1CCC2(CCN(C3CCN(c4cnccn4)CC3)CC2)c2ccccc21 [compound 8] | 25 to 100% | +++ (activity was measured to be less than 2.0 μM) | 25 to 100% | +++ (activity was measured to be less than 2.0 μM)
11 | CC#CCOC(=O)N1CCCC(N2CCC3(CC2)CN(C(=O)N(C)C)c2ccccc23)CC1 (stereo not shown) [compound 105] | > 100% | +++ (activity was measured to be less than 2.0 μM) | > 100% | +++ (activity was measured to be less than 2.0 μM)
12 | CCOC(=O)N1C2CCC1CC(N1CCC3(CCN(C(C)=O)c4ccccc43)CC1)C2 (stereo not shown) [compound 1] | 25 to 100% | +++ (activity was measured to be less than 2.0 μM) | 25 to 100% | +++ (activity was measured to be less than 2.0 μM)
13 | CN(C)C(=O)N1CC2(CCN(C3CCN(c4cnc5ccccc5n4)CC3)CC2)c2ccccc21 [compound 78] | 25 to 100% | +++ (activity was measured to be less than 2.0 μM) | 25 to 100% | +++ (activity was measured to be less than 2.0 μM)
14 | Cc1ncc(N2CC[C@H](CN3CCC4(CC3)CN(C(=O)N(C)C)c3ccccc34)C2)nc1C [compound 87] | < 25% | + (activity was measured to be greater than 10.0 μM) | 25 to 100% | +++ (activity was measured to be less than 2.0 μM)
15 | CN(C)C(=O)N1CCC2(CCN(C3CC4CCC(C3)N4c3cnccn3)CC2)c2ccccc21 (stereo not shown) [compound 30] | 25 to 100% | +++ (activity was measured to be less than 2.0 μM) | 25 to 100% | +++ (activity was measured to be less than 2.0 μM)
16 | Cc1nsc(N2CCC(C)(N3CCC4(CC3)CN(C(=O)N(C)C)c3ccccc34)CC2)n1 [compound 115] | < 25% | + (activity was measured to be greater than 10.0 μM) | < 25% | +++ (activity was measured to be less than 2.0 μM)
17 | CCC#CCOC(=O)N1CCC(N2CCC3(CC2)CN(C(=O)N(C)C)c2ccccc23)CC1 [compound 93] | 25 to 100% | +++ (activity was measured to be less than 2.0 μM) | 25 to 100% | +++ (activity was measured to be less than 2.0 μM)
18 | CCOC(=O)N1CCCC(N2CCC3(CC2)CN(C(=O)N(C)C)c2ccccc23)CC1 (stereo not shown) [compound 68] | 25 to 100% | +++ (activity was measured to be less than 2.0 μM) | > 100% | +++ (activity was measured to be less than 2.0 μM)
19 | C#CCOC(=O)N1CCC(N2CCC3(CC2)CN(C(=O)N(C)C)c2ccccc23)CC1 [compound 92] | > 100% | +++ (activity was measured to be less than 2.0 μM) | > 100% | +++ (activity was measured to be less than 2.0 μM)
